Data as given in patent EP0345356A1, “PLATINUM COMPLEX AND THERAPEUTIC AGENT FOR MALIGNANT TUMOR” (TORAY INDUSTRIES, INC., priority 1987, dated 1989).
“And” between values parts separate entries of the source, which are not always exact repeats. Identical values can stand only once.

Columns and labels:
[1] = tested on: Slc:ICR mice; experiment: Acute toxicity test in mice (LD50, Miller-Tainter method); format: in vivo; conditions: intraperitoneal, Slc:ICR mice (male), death rate on the 14th day
Procedure: Platinum complexes to be tested was administered intraperitoneally to Slc:ICR mice (male, 5 weeks old, 6 mice/group). Each complex was used in the form of a solution or suspension in a 0.05% "Tween 80" in saline. The LD50 value was calculated by the Miller-Tainter method from the death rate on the 14th day from the date of the administration.

[2] = tested on: L1210 murine leukemia cells; experiment: Antitumor activity against L1210 leukemia in mice; format: in vivo, CDF1 mice; conditions: for Survival days (mean ± SD) / T/C (%): given on 1st, 5th and 9th days after tumor inoculation; for Survival rate: number of 30 days survival mice / group
Procedure: L1210 murine leukemia cells which were subcultured in DBA/2 mouse were inoculated intraperitoneally into CDF1 mice at 10^5 cells/mouse. Each experimental group was composed of 6-10 mice (male, 6-weeks old). Each test compound was administered three times, i.e., on the 1st, 5th and 9th days after tumor inoculation. […] Each compound was dissolved or suspended in 0.05% "Tween 80" solution and administered in mice.

Compound: NC1CCCCC1N.O=C([O-])c1ccco1.O=C([O-])c1ccco1.[Pt+2] (stereo not drawn) [XXIV-1, Bis(2-furancarboxylato)(trans-ℓ-dach)platinum(II)]
- LD50 values [1]: 87 mg/kg
- Survival days (mean ± SD) ([2]; Dose 1 mg/kg): 9.5 ± 0.8 days
- T/C (%) ([2]; Dose 1 mg/kg): 117%
- Survival rate ([2]; Dose 1 mg/kg): 0/6
- Survival days (mean ± SD) ([2]; Dose 10 mg/kg): 14.2 ± 2.9 days
- T/C (%) ([2]; Dose 10 mg/kg): 175%
- Survival rate ([2]; Dose 10 mg/kg): 0/6
- Survival days (mean ± SD) ([2]; Dose 25 mg/kg): 20.2 ± 4.9 days
- T/C (%) ([2]; Dose 25 mg/kg): 249%
- Survival rate ([2]; Dose 25 mg/kg): 1/6
- Survival days (mean ± SD) ([2]; Dose 50 mg/kg): 17.3 ± 6.3 days
- T/C (%) ([2]; Dose 50 mg/kg): 214%
- Survival rate ([2]; Dose 50 mg/kg): 1/6
- Survival days (mean ± SD) ([2]; Dose 100 mg/kg): 9.0 ± 1.5 days
- T/C (%) ([2]; Dose 100 mg/kg): 111%
- Survival rate ([2]; Dose 100 mg/kg): 0/6
- Survival days (mean ± SD) ([2]; Dose 200 mg/kg): 6.0 days
- T/C (%) ([2]; Dose 200 mg/kg): 74%
- Survival rate ([2]; Dose 200 mg/kg): 0/6

Compound: NC1CCCCC1N.O=C([O-])CCc1ccc(O)cc1.O=C([O-])CCc1ccc(O)cc1.[Pt+2] [XXXIV-1, Bis(3-(4-hydroxyphenyl)propionato)(trans-ℓ-dach)-platinum(II)]
- LD50 values [1]: 90 mg/kg

Compound: O=C([O][Pt]1([O]C(=O)c2ccc(N3C(=O)C=CC3=O)cc2)[NH]C2CCCCC2[NH]1)c1ccc(N2C(=O)C=CC2=O)cc1 (stereo not drawn) [XXVIII-1, Bis[N-(4-carboxyphenyl)maleimido](trans-ℓ-dach)-platinum(II)]
- LD50 values [1]: 70 mg/kg

Compound: 2-Furanacrylate-hydroxo(trans-i-dach)platinum(II) [XXXI-3]
- LD50 values [1]: >200 mg/kg

Compound: O=C(C=Cc1ccc(C(F)(F)F)cc1)[O][Pt]1([OH])[NH]C2CCCCC2[NH]1 (stereo not drawn) [XXXI-5, β-(4-trifluourmethylphenyl)acrylate-hydroxo(trans-ℓ-dach)platinum(II)]
- LD50 values [1]: >200 mg/kg

Compound: COC(=O)C(Cc1ccccc1)NC(=O)C=CC(=O)[O-].NC1CCCCC1N.[OH-].[Pt+2] (stereo not drawn) [XXIX-2, N-(dℓ-2-phenyl-1-methoxycarbonylethyl)maleamido-hydroxo(trans-i-dach)platinum(II)]
- LD50 values [1]: >200 mg/kg

Compound: N-(4-methoxycarbonylphenyl)maleamido-hydroxo(trans-A-dach)platinum(II) [XXIX-3]
- LD50 values [1]: 48 mg/kg

Compound: Bis(2-propenylacrylate)(trans-ℓ-dach)platinum(II) [XXX-1]
- LD50 values [1]: 77 mg/kg

Compound: CC1(C(=O)[O][Pt][O]C(=O)C2(C)CCC3(C)CCC4(C)C(=CC(=O)C5C6(C)CCC(O)C(C)(C)C6CCC54C)C3C2)CCC2(C)CCC3(C)C(=CC(=O)C4C5(C)CCC(O)C(C)(C)C5CCC43C)C2C1.NC1CCCCC1N.O.O.O.O (stereo not drawn) [XXXV-1, Bis(β-glycyrrhetinato)(trans-ℓ-dach)platinum(II)-tetrahydrate]
- LD50 values [1]: >150 mg/kg

Compound: N.N.O=C([O-])C1(C(=O)[O-])CCC1.[Pt+2] [C B D C A, cis-diammine-1,1-cyclobutanedicarboxylate platinum(II), reference compound]
- Survival days (mean ± SD) ([2]; Dose 1 mg/kg): 8.3 ± 0.5 days
- T/C (%) ([2]; Dose 1 mg/kg): 98%
- Survival rate ([2]; Dose 1 mg/kg): 0/10
- Survival days (mean ± SD) ([2]; Dose 10 mg/kg): 9.3 ± 0.5 days
- T/C (%) ([2]; Dose 10 mg/kg): 109%
- Survival rate ([2]; Dose 10 mg/kg): 0/10
- Survival days (mean ± SD) ([2]; Dose 25 mg/kg): 10.1 ± 1.3 days
- T/C (%) ([2]; Dose 25 mg/kg): 119%
- Survival rate ([2]; Dose 25 mg/kg): 0/10
- Survival days (mean ± SD) ([2]; Dose 50 mg/kg): 13.1 ± 2.3 days
- T/C (%) ([2]; Dose 50 mg/kg): 156%
- Survival rate ([2]; Dose 50 mg/kg): 0/10
- Survival days (mean ± SD) ([2]; Dose 100 mg/kg): 14.1 ± 3.7 days
- T/C (%) ([2]; Dose 100 mg/kg): 166%
- Survival rate ([2]; Dose 100 mg/kg): 0/10
- Survival days (mean ± SD) ([2]; Dose 200 mg/kg): 9.6 ± 0.7 days
- T/C (%) ([2]; Dose 200 mg/kg): 113%
- Survival rate ([2]; Dose 200 mg/kg): 0/10

Compound: O=C(C=Cc1ccc(O)cc1)[O][Pt]1([OH])[NH]C2CCCCC2[NH]1 (stereo not drawn) [XXXI-4, β-(4-hydroxyphenyl)acrylate-hydroxo(trans-ℓ-dach)-platinum(II)]
- LD50 values [1]: 117 mg/kg

Compound: 2-Propenylacrylate-hydroxo(trans-ℓ-dach)platinum(II) [XXXI-2]
- LD50 values [1]: >200 mg/kg

Compound: NC1CCCCC1N.O=C(CN1C(=O)c2ccccc2C1=O)NCC(=O)[O][Pt][O]C(=O)CNC(=O)CN1C(=O)c2ccccc2C1=O [XXVI-1, Bis(phthaloylglycylglycinato)(trans-ℓ-dach)-platinum(II)]
- LD50 values [1]: >200 mg/kg

Compound: NC1CCCCC1N.O=C([O-])C1CCCO1.O=C([O-])C1CCCO1.[Pt+2] (racemic) [XXIV-2, Bis(DL-2-tetrahydrofurancarboxylato)(trans-ℓ-dach)-platinum(II)]
- LD50 values [1]: 45 mg/kg
- Survival days (mean ± SD) ([2]; Dose 1 mg/kg): 11.5 ± 1.9 days
- T/C (%) ([2]; Dose 1 mg/kg): 135%
- Survival rate ([2]; Dose 1 mg/kg): 0/6
- Survival days (mean ± SD) ([2]; Dose 10 mg/kg): 20.3 ± 2.7 days
- T/C (%) ([2]; Dose 10 mg/kg): 239%
- Survival rate ([2]; Dose 10 mg/kg): 0/6
- Survival days (mean ± SD) ([2]; Dose 25 mg/kg): 16.7 ± 4.3 days
- T/C (%) ([2]; Dose 25 mg/kg): 196%
- Survival rate ([2]; Dose 25 mg/kg): 0/6
- Survival days (mean ± SD) ([2]; Dose 50 mg/kg): 10.2 ± 1.0 days
- T/C (%) ([2]; Dose 50 mg/kg): 120%
- Survival rate ([2]; Dose 50 mg/kg): 0/6
- Survival days (mean ± SD) ([2]; Dose 100 mg/kg): 6.3 ± 0.8 days
- T/C (%) ([2]; Dose 100 mg/kg): 74%
- Survival rate ([2]; Dose 100 mg/kg): 0/6
- Survival days (mean ± SD) ([2]; Dose 200 mg/kg): 4.8 ± 1.3 days
- T/C (%) ([2]; Dose 200 mg/kg): 57%
- Survival rate ([2]; Dose 200 mg/kg): 0/6

Compound: NC1CCCCC1N.O=C([O-])C=CC(=O)Nc1cccc(O)c1.[OH-].[Pt+2] [XXIX-4, N-(3-hydroxyphenyl)maleamido-hydroxo(trans-ℓ-dach)-platinum(II)]
- LD50 values [1]: 62 mg/kg

Compound: NC1CCCCC1N.O=C([O-])c1cc2ccccc2[nH]1.O=C([O-])c1cc2ccccc2[nH]1.[Pt+2] [XXIII-1, Bis(indole-2-carboxylato)(trans-ℓ-dach)platinum(II)]
- LD50 values [1]: 180 mg/kg
- Survival days (mean ± SD) ([2]; Dose 1 mg/kg): 8.5 ± 0.8 days
- T/C (%) ([2]; Dose 1 mg/kg): 102%
- Survival rate ([2]; Dose 1 mg/kg): 0/6
- Survival days (mean ± SD) ([2]; Dose 10 mg/kg): 10.5 ± 1.0 days
- T/C (%) ([2]; Dose 10 mg/kg): 127%
- Survival rate ([2]; Dose 10 mg/kg): 0/6
- Survival days (mean ± SD) ([2]; Dose 25 mg/kg): 15.0 ± 5.4 days
- T/C (%) ([2]; Dose 25 mg/kg): 181%
- Survival rate ([2]; Dose 25 mg/kg): 0/6
- Survival days (mean ± SD) ([2]; Dose 50 mg/kg): 18.7 ± 9.2 days
- T/C (%) ([2]; Dose 50 mg/kg): 225%
- Survival rate ([2]; Dose 50 mg/kg): 1/6
- Survival days (mean ± SD) ([2]; Dose 100 mg/kg): 21.2 ± 7.9 days
- T/C (%) ([2]; Dose 100 mg/kg): 255%
- Survival rate ([2]; Dose 100 mg/kg): 2/6
- Survival days (mean ± SD) ([2]; Dose 200 mg/kg): 8.2 ± 1.9 days
- T/C (%) ([2]; Dose 200 mg/kg): 99%
- Survival rate ([2]; Dose 200 mg/kg): 0/6

Compound: CC1(C)CC(=O)C=C(C(=O)[O-])O1.CC1(C)CC(=O)C=C(C(=O)[O-])O1.NC1CCCCC1N.[Pt+2] [XXV-1, bis(3,4-dihydro-2,2-dimethyl-4-oxo-2H-pyrane-6-carboxylato) (trans-k-dach)platinum(II)]
- LD50 values [1]: 192 mg/kg

Compound: NC1CCCCC1N.O=C([O][Pt][O]C(=O)C1(O)CC(O)C(O)C(O)C1)C1(O)CC(O)C(O)C(O)C1 [XXXII-1, Bis(lR,3R,4R,5R-tetrahydroxycyclohexanecarboxylato)-(trans-ℓ-dach)platinum(II)]
- LD50 values [1]: >200 mg/kg

Compound: CCOC(=O)CNC(=O)C=CC(=O)[O-].NC1CCCCC1N.[OH-].[Pt+2] [XXIX-1, N-(ethoxycarbonylmethyl)maleamido-hydroxo(trans-ℓ- dach)platinum(II)]
- LD50 values [1]: >200 mg/kg

Compound: N.N.[Cl][Pt][Cl] [C D D P, cis-diamminedichloro platinum(II), reference compound]
- Survival days (mean ± SD) ([2]; Dose 0.5 mg/kg): 18.9 ± 5.8 days
- T/C (%) ([2]; Dose 0.5 mg/kg): 225%
- Survival rate ([2]; Dose 0.5 mg/kg): 0/6
- Survival days (mean ± SD) ([2]; Dose 2.5 mg/kg, 2.5 mg/kg): 14.5 ± 2.5 days and 15.5 ± 1.4 days and 13.0 ± 3.1 days and 14.8 ± 2.7 days
- T/C (%) ([2]; Dose 2.5 mg/kg, 2.5 mg/kg): 175% and 191% and 181%
- Survival rate ([2]; Dose 2.5 mg/kg): 0/6
- Survival days (mean ± SD) ([2]; Dose 5 mg/kg, 5 mg/kg): 16.3 ± 1.2 days and 18.2 ± 0.4 days and 18.8 ± 4.3 days
- T/C (%) ([2]; Dose 5 mg/kg, 5 mg/kg): 201% and 214% and 232%
- Survival rate ([2]; Dose 5 mg/kg): 0/6
- Survival days (mean ± SD) ([2]; Dose 7.5 mg/kg, 7.5 mg/kg): 19.0 ± 8.7 days and 19.2 ± 3.0 days and 20.2 ± 4.8 days and 18.7 ± 3.1 days
- T/C (%) ([2]; Dose 7.5 mg/kg, 7.5 mg/kg): 229% and 237% and 238% and 231%
- Survival rate ([2]; Dose 7.5 mg/kg, 7.5 mg/kg): 1/6 and 0/6

Compound: COCCOCC(=O)[O][Pt][O]C(=O)COCCOC.NC1CCCCC1N [XXVII-1, Bis(methoxyethoxymethylcarboxylato)(trans-ℓ-dach)-platinum(II)]
- LD50 values [1]: 50 mg/kg
